Assay [1] is filed under the species Homo sapiens. Kind of assay: Ratio of IC50 for AchE to IC50 for BuChE.
The target in a further assay is Acetylcholinesterase (Homo sapiens, UniProt P22303). Put plainly: Inhibition of human erythrocyte AchE.
The next assay deals with Cholinesterase (Homo sapiens, UniProt P06276). Put plainly: Inhibition of human serum BuChE.
Assay [2] is filed under the species Homo sapiens. Kind of assay: Ratio of IC50 for BuChE to IC50 for AchE.

Chain of Cholinesterase (P06276 whole entry): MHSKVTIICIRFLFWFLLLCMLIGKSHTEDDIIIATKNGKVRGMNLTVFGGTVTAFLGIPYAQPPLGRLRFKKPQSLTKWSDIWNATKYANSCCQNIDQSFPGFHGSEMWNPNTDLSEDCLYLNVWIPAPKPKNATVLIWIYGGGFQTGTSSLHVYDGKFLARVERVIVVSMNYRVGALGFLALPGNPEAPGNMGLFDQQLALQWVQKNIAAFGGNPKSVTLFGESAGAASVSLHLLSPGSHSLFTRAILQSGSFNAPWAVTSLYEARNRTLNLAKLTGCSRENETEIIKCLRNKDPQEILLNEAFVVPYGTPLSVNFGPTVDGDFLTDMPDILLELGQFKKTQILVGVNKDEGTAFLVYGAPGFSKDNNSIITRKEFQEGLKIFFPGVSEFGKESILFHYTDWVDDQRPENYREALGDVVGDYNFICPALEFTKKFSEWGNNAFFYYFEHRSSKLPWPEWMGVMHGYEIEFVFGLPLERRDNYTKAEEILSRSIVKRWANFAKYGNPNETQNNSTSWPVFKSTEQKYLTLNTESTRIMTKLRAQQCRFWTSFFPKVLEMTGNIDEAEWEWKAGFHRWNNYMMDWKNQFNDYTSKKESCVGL
Chain of Acetylcholinesterase (P22303 whole entry): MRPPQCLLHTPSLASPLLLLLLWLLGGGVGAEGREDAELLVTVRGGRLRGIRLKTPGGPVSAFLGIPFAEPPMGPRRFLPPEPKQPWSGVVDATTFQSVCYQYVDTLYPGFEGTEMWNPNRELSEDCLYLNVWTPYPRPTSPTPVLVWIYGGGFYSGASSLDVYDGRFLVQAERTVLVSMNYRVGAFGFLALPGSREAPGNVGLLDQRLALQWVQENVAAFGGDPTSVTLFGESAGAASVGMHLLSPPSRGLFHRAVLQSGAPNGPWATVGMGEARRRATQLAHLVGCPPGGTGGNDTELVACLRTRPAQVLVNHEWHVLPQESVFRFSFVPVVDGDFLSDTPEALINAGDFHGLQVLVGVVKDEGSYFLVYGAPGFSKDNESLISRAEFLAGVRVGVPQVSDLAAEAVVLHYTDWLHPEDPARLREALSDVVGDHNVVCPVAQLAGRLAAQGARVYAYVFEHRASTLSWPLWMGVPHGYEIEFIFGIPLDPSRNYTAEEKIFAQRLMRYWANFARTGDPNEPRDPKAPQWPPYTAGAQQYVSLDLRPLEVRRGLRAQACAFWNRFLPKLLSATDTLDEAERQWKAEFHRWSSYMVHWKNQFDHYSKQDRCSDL

Consider `CN(CCCCCCCCCOc1ccc2c(=O)c3ccccc3oc2c1)Cc1ccccc1`, for which, in the assay filed under Homo sapiens [1], the Ratio IC50 was determined as 1520.
For the compound `CN(CCCCCCCOc1ccc2c(=O)c3ccccc3oc2c1)Cc1ccc(Cl)cc1`, the figures for the IC50 at Acetylcholinesterase and on Cholinesterase were 1050 µM and 127 µM, respectively. Further, the Ratio IC50 in the assay listed under Homo sapiens [2] is 0.12; in the assay filed under Homo sapiens [1], 8.26.
On to `CN(CCCCCCCCCCCCOc1ccc2c(=O)c3ccccc3oc2c1)Cc1ccccc1`, for which the Ratio IC50 in the assay listed under Homo sapiens [1] is 6050.
Turning to `COc1ccccc1CN(C)CCCOc1ccc2c(=O)c3ccccc3oc2c1`, the IC50 – broadly, the concentration needed to halve the response being measured – against Acetylcholinesterase was 3.4 µM; against Cholinesterase, 1.91 µM. Moreover, the Ratio IC50 in the assay listed under Homo sapiens [2] was 0.56; in the assay filed under Homo sapiens [1], 1.78.
The matching figures for `COc1ccc(CN(C)CCCCCCCOc2ccc3c(=O)c4ccccc4oc3c2)c(OC)c1OC`: 155 µM, 1 µM, 0.006 and 155.
On the same counts, the results for `CN(CCCCCCCCOc1ccc2c(=O)c3ccccc3oc2c1)Cc1ccccc1` are 10.3 µM, 0.08 µM, 0.008 and 129.
For the compound `COc1cccc(CN(C)CCCCCCCOc2ccc3c(=O)c4ccccc4oc3c2)c1OC`, the figures for the IC50 at Acetylcholinesterase and against Cholinesterase were 138 µM and 2.01 µM, respectively. In addition, the Ratio IC50 in the assay filed under Homo sapiens [2] stood at 0.014; in the assay filed under Homo sapiens [1], 68.7.
On the same counts, the results for `COc1ccccc1CN(C)CCCCCCCOc1ccc2c(=O)c3ccccc3oc2c1` are 2.18 µM, 0.93 µM, 0.43 and 2.34.
On the same counts, the results for `CN(CCCCOc1ccc2c(=O)c3ccccc3oc2c1)Cc1ccccc1` are 6.25 µM, 2.65 µM, 0.42 and 2.36.
The matching figures for `COc1ccc(OC)c(CN(C)CCCCCCCOc2ccc3c(=O)c4ccccc4oc3c2)c1`: 127 µM, 1.27 µM, 0.01 and 100.
For the compound `CN(CCCOc1ccc2c(=O)c3ccccc3oc2c1)Cc1ccccc1`, the IC50 against Acetylcholinesterase is 2.68 µM; against Cholinesterase, 8.33 µM. Moreover, the Ratio IC50 in the assay listed under Homo sapiens [2] worked out at 3.11; in the assay filed under Homo sapiens [1], 0.32.
As for `CN(CCCCCCCOc1ccc2c(=O)c3ccccc3oc2c1)Cc1cccc(Cl)c1`, the IC50 against Acetylcholinesterase turned out to be 594 µM; on Cholinesterase, 63.8 µM. The Ratio IC50 in the assay filed under Homo sapiens [2] was 0.1; in the assay listed under Homo sapiens [1] it was 9.3.
Regarding `COc1ccc(CN(C)CCCCCCCOc2ccc3c(=O)c4ccccc4oc3c2)cc1`, the IC50 amounted to 360 µM at Acetylcholinesterase and 2.11 µM at Cholinesterase. Also, the Ratio IC50 in the assay listed under Homo sapiens [2] is 0.006; in the assay listed under Homo sapiens [1] it was 171.
On the same counts, the results for `Cc1ccccc1CN(C)CCCCCCCOc1ccc2c(=O)c3ccccc3oc2c1` are 565 µM, 29.5 µM, 0.05 and 19.1.
The matching figures for `CN(CCCCCCCOc1ccc2c(=O)c3ccccc3oc2c1)Cc1ccccc1`: 2.82 µM, 0.8 µM, 0.28 and 3.52.
The matching figures for `CCN(CCCCCCCOc1ccc2c(=O)c3ccccc3oc2c1)Cc1ccccc1OC`: 3.15 µM, 0.32 µM, 0.1 and 9.8.
For the compound `CN(CCCCCCOc1ccc2c(=O)c3ccccc3oc2c1)Cc1ccccc1`, the IC50 against Acetylcholinesterase was 2.89 µM; at Cholinesterase, 1.43 µM. Further, the Ratio IC50 in the assay filed under Homo sapiens [2] turned out to be 0.49; in the assay filed under Homo sapiens [1] it was 2.02.
On the same counts, the results for `CN(CCCCCCCOc1ccc2c(=O)c3ccccc3oc2c1)Cc1ccccc1[N+](=O)[O-]` are 413 µM, 14 µM, 0.03 and 29.5.
The matching figures for `CN(CCCCCCCOc1ccc2c(=O)c3ccccc3oc2c1)Cc1ccccc1Cl`: 433 µM, 269 µM, 0.62 and 1.6.
Consider `CNC(=O)Oc1cccc(CN(C)CCCCCCCOc2ccc3c(=O)c4ccccc4oc3c2)c1`, for which the figures for the Ratio IC50 in the assay listed under Homo sapiens [2] and in the assay filed under Homo sapiens [1] were 51.6 and 0.019, respectively.
Regarding `COc1cc2oc3cc(OCCCCCCCN(C)Cc4ccccc4)ccc3c(=O)c2cc1OC`, the IC50 against Acetylcholinesterase amounted to 2.32 µM; on Cholinesterase, 3.08 µM. The Ratio IC50 in the assay filed under Homo sapiens [2] was found to be 1.33; in the assay listed under Homo sapiens [1], 0.75.
With `CN(CCCCCOc1ccc2c(=O)c3ccccc3oc2c1)Cc1ccccc1`, the IC50 against Acetylcholinesterase worked out at 7.78 µM; at Cholinesterase it was 2.49 µM. Besides, the results for the Ratio IC50 in the assay listed under Homo sapiens [2] and in the assay listed under Homo sapiens [1] were 0.32 and 3.12, respectively.
On the same counts, the results for `COc1ccc2c(=O)c3ccc(OCCCCCCCN(C)Cc4ccccc4)cc3oc2c1` are 7.84 µM, 46.1 µM, 5.9 and 0.17.
For the compound `CN(CCCCCCCCCCCOc1ccc2c(=O)c3ccccc3oc2c1)Cc1ccccc1`, the Ratio IC50 in the assay listed under Homo sapiens [1] was found to be 5220.
On to `COc1cccc(CN(C)CCCCCCCOc2ccc3c(=O)c4ccccc4oc3c2)c1`, for which the results for the IC50 on Acetylcholinesterase and on Cholinesterase were 40 µM and 1.85 µM, respectively. The Ratio IC50 in the assay listed under Homo sapiens [2] was 0.05; in the assay filed under Homo sapiens [1] it was 21.6.
Take `CN(CCCCCCCCCCOc1ccc2c(=O)c3ccccc3oc2c1)Cc1ccccc1`: in the assay filed under Homo sapiens [1], the Ratio IC50 was determined as 3880.

Values taken from ChEMBL document CHEMBL1144481, “Cholinesterase inhibitors: SAR and enzyme inhibitory activity of 3-[omega-(benzylmethylamino)alkoxy]xanthen-9-ones” (Bioorg Med Chem, 2007).
